Key:
[1] = target: T1, NIH-3T3 cells overexpressing human IGF-1R (Homo sapiens, UniProt P08069); assay: IGF-1R cellular autophosphorylation (DELFIA); type: cell-based
T1 construct: expressed in transfected cells; host or cells: NIH-3T3 (mouse fibroblasts)
Procedure, shortened: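 Receptor autophosphorylation measured by DELFIA, capturing IGF-1R or IRβ and detecting with europium anti-pTyr, reported as percent of IGF-1- or insulin-stimulated signal. Compounds (30 uM to 1.5 nM) added 2 h before ligand, then 15 min stimulation (IGF-1 30 ng/ml or insulin 3 ug/ml).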

human IR (hIR) = target: T2, human IR (hIR) (Homo sapiens, UniProt P06213); assay: TR-FRET kinase assay of purified hIR; type: biochemical; settings: activated hIR 0.5 nM, 10 μM ATP, values given as pIC50 category
T2 construct: containing amino acid residues 979-1382 of human IR; made in house; host or cells: Sf9 cells (baculovirus), same process as hIGF1R
T2 sequence (P06213 979-1382): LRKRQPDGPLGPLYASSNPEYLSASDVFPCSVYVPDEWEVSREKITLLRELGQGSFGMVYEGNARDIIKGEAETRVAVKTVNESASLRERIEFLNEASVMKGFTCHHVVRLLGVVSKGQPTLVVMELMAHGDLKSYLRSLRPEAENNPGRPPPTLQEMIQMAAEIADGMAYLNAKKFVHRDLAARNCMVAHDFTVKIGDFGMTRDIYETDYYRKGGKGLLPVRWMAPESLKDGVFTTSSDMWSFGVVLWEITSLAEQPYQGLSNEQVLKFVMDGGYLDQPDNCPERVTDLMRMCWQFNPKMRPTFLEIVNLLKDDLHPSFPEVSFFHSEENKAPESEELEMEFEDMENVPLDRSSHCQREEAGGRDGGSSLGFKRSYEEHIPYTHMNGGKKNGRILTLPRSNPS

human IGF1R (hIGF1R) = target: T3, human IGF1R (hIGF1R) (Homo sapiens, UniProt P08069); assay: TR-FRET kinase assay of purified hIGF1R; type: biochemical; settings: activated hIGF1R 0.5 nM, 10 μM ATP, values given as pIC50 category, read-out: IGF-1R pIC50 (converted)
T3 construct: containing amino acid residues 957-1367 of human IGF1R; made in house; host or cells: Sf9 cells (baculovirus)
T3 sequence (P08069 957-1367): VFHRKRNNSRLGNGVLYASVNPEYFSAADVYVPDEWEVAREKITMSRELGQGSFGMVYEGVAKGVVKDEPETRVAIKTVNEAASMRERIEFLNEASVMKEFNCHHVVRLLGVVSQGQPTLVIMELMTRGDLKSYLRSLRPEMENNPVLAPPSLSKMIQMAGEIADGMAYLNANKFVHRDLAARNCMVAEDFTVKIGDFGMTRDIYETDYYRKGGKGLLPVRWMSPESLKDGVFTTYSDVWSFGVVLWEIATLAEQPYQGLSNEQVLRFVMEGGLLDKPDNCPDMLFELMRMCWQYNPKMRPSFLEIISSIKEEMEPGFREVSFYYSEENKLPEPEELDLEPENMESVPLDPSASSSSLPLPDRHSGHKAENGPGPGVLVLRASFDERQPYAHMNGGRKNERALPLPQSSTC

T1 sequence (P08069 31-1367): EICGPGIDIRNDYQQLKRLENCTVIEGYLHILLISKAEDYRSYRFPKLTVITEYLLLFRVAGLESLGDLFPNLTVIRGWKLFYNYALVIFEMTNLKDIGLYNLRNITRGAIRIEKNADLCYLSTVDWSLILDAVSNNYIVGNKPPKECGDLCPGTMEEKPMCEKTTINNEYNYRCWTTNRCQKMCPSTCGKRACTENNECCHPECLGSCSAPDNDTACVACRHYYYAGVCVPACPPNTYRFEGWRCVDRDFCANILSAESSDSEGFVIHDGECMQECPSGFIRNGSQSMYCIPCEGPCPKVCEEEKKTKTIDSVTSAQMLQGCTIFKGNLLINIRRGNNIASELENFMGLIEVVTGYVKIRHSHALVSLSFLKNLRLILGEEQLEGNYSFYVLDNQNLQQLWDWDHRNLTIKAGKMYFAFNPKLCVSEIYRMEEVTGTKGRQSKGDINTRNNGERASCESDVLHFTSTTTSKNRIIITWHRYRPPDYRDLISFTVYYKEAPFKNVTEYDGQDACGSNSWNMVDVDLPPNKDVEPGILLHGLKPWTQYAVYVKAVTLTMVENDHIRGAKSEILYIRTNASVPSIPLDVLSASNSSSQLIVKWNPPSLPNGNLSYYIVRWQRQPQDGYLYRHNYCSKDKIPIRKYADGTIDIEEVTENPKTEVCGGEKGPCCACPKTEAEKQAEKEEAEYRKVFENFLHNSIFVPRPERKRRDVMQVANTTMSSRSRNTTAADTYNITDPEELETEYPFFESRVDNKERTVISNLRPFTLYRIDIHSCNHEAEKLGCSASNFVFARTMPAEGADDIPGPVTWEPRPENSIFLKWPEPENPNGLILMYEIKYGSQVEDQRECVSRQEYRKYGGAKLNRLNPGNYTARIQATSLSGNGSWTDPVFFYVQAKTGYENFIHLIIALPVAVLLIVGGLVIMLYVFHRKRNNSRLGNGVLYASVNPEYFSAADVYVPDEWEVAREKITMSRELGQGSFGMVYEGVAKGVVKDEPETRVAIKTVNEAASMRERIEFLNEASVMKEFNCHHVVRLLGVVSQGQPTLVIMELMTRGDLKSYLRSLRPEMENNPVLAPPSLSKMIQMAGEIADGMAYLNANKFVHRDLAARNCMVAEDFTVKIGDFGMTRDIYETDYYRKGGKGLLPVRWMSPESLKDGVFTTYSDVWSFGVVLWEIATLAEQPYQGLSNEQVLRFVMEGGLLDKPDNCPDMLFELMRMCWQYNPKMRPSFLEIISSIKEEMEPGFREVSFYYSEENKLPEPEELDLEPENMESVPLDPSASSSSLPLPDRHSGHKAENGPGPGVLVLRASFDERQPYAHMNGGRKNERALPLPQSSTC

| IC50 [1] [nM] | IC50 (human IR (hIR)) [nM] | IC50 (human IGF1R (hIGF1R)) [nM] | SMILES |
| --- | --- | --- | --- |
| > 500 | 5.01 to 158 | 5.01 to 200 | CNC(=O)c1c(F)cccc1Nc1nc(Nc2cc3c(cc2OC)CCCN3C(=O)CCN(C)C)nc2[nH]ccc12 [Example 213, 2-[(2-{[1-(N,N-dimethyl-β-alanyl)-6-(methyloxy)-1,2,3,4-tetrahydro-7-quinolinyl]amino}-1H-pyrrolo[2,3-d]pyrimidin-4-yl)amino]-6-fluoro-N-methylbenzamide] |
| < 100 | 0.251 to 1 | 0.251 to 1 | COc1cc2c(cc1Nc1nc(Nc3cc4ccccc4cc3C(N)=O)c3cc[nH]c3n1)N(C(=O)CN(C)C)CC2 [Example 124, 3-[(2-{[1-(N,N-dimethylglycyl)-5-(methyloxy)-2,3-dihydro-1H-indol-6-yl]amino}-1H-pyrrolo[2,3-d]pyrimidin-4-yl)amino]-2-naphthalenecarboxamide] |
| < 100 | 0.251 to 1 | 0.251 to 1 | CNC(=O)c1c(F)cc(F)cc1Nc1nc(Nc2cc3c(cc2OC)CCN3C(=O)CN(C)C)nc2[nH]ccc12 [Example 190, 2-[(2-{[1-(N,N-dimethylglycyl)-5-(methyloxy)-2,3-dihydro-1H-indol-6-yl]amino}-1H-pyrrolo[2,3-d]pyrimidin-4-yl)amino]-4,6-difluoro-N-methylbenzamide] |
| 100 to 500 | 5.01 to 158 | 5.01 to 200 | CCN(CC)CC(=O)N1CCc2cc(OC)c(Nc3nc(Nc4cccc(F)c4C(=O)NC)c4cc[nH]c4n3)cc21 [Example 137, 2-[(2-{[1-(N,N-diethylglycyl)-5-(methyloxy)-2,3-dihydro-1H-indol-6-yl]amino}-1H-pyrrolo[2,3-d]pyrimidin-4-yl)amino]-6-fluoro-N-methylbenzamide] |
| < 100 | 0.251 to 1 | 0.251 to 1 | CN(C)CC(=O)Nc1ccc(F)c(Nc2nc(Nc3ccccc3C(N)=O)c3cc[nH]c3n2)c1 [Example 17, 2-{[2-({5-[(N,N-dimethylglycyl)amino]-2-fluorophenyl}amino)-1H-pyrrolo[2,3-d]pyrimidin-4-yl]amino}benzamide] |
| < 100 | 0.251 to 1 | 0.251 to 1 | COc1cc2c(cc1Nc1nc(Nc3cccc4c3C(=O)NC4)c3cc[nH]c3n1)N(C(=O)CN(C)C)CC2 [Example 200, 7-[(2-{[1-(N,N-dimethylglycyl)-5-(methyloxy)-2,3-dihydro-1H-indol-6-yl]amino}-1H-pyrrolo[2,3-d]pyrimidin-4-yl)amino]-2,3-dihydro-1H-isoindol-1-one] |
| < 100 | 0.251 to 1 | 0.251 to 1 | CCCN1CCCC(c2ccc(Nc3nc(Nc4ccccc4C(N)=O)c4cc[nH]c4n3)c(OC)c2)C1 (stereo not drawn) [Example 3, 2-[(2-{[2-(methyloxy)-4-(1-propyl-3-piperidinyl)phenyl]amino}-1H-pyrrolo[2,3-d]pyrimidin-4-yl)amino]benzamide] |
| 100 to 500 | 0.251 to 1 | 0.251 to 1 | COc1ccc(OC[C@@H](O)CN2CCCC2)cc1Nc1nc(Nc2cc(F)c(F)cc2C(N)=O)c2cc[nH]c2n1 [Example 107, 4,5-difluoro-2-[(2-{[5-{[(2S)-2-hydroxy-3-(1-pyrrolidinyl)propyl]oxy}-2-(methyloxy)phenyl]amino}-1H-pyrrolo[2,3-d]pyrimidin-4-yl)amino]benzamide] |
| 100 to 500 | 5.01 to 158 | 5.01 to 200 | CCCN(CCC)[C@@H](C)C(=O)N1CCc2cc(OC)c(Nc3nc(Nc4cccc(F)c4C(=O)NC)c4cc[nH]c4n3)cc21 [Example 191, 2-[(2-{[1-(N,N-dipropyl-L-alanyl)-5-(methyloxy)-2,3-dihydro-1H-indol-6-yl]amino}-1H-pyrrolo[2,3-d]pyrimidin-4-yl)amino]-6-fluoro-N-methylbenzamide] |
| < 100 | 0.251 to 1 | 0.251 to 1 | COc1cc2c(cc1Nc1nc(Nc3cccc(F)c3C(N)=O)c3cc[nH]c3n1)N(C(=O)CN1CCCCC1)CCC2 [Example 218, 2-fluoro-6-[(2-{[6-(methyloxy)-1-(1-piperidinylacetyl)-1,2,3,4-tetrahydro-7-quinolinyl]amino}-1H-pyrrolo[2,3-d]pyrimidin-4-yl)amino]benzamide] |
| < 100 | 1.26 to 3.98 | 0.251 to 1 | CCNC(=O)c1c(F)cc(F)cc1Nc1nc(Nc2cc3c(cc2OC)CCCN3C(=O)CN(C)C)nc2[nH]ccc12 [Example 180, 2-[(2-{[1-(N,N-dimethylglycyl)-6-(methyloxy)-1,2,3,4-tetrahydro-7-quinolinyl]amino}-1H-pyrrolo[2,3-d]pyrimidin-4-yl)amino]-N-ethyl-4,6-difluorobenzamide] |
| 100 to 500 | 5.01 to 158 | 5.01 to 200 | CNC(=O)c1c(F)cccc1Nc1nc(Nc2cc3c(cc2OC)CCCN3C(=O)[C@@H]2CCCN2C)nc2[nH]ccc12 [Example 202, 2-fluoro-N-methyl-6-[(2-{[6-(methyloxy)-1-(1-methyl-L-prolyl)-1,2,3,4-tetrahydro-7-quinolinyl]amino}-1H-pyrrolo[2,3-d]pyrimidin-4-yl)amino]benzamide] |
| < 100 | 1.26 to 3.98 | 5.01 to 200 | CCCN(CCC)[C@@H](C)C(=O)N1CCc2cc(OC)c(Nc3nc(Nc4cccc(F)c4C(N)=O)c4cc[nH]c4n3)cc21 [Example 192, 2-[(2-{[1-(N,N-dipropyl-L-alanyl)-5-(methyloxy)-2,3-dihydro-1H-indol-6-yl]amino}-1H-pyrrolo[2,3-d]pyrimidin-4-yl)amino]-6-fluorobenzamide] |
| > 500 | 5.01 to 158 | 5.01 to 200 | COc1cc2c(cc1Nc1nc(Nc3cccc(F)c3C(N)=O)c3cc[nH]c3n1)N(C(=O)N(C)C)CC2 [Example 146, 6-[(4-{[2-(aminocarbonyl)-3-fluorophenyl]amino}-1H-pyrrolo[2,3-d]pyrimidin-2-yl)amino]-N,N-dimethyl-5-(methyloxy)-2,3-dihydro-1H-indole-1-carboxamide] |
| > 500 | 1.26 to 3.98 | 5.01 to 200 | CNC(=O)c1c(F)cccc1Nc1nc(Nc2cc3c(cc2OC)CCN(C(C)C)C3)nc2[nH]ccc12 [Example 235, 2-fluoro-N-methyl-6-[(2-{[2-(1-methylethyl)-6-(methyloxy)-1,2,3,4-tetrahydro-7-isoquinolinyl]amino}-1H-pyrrolo[2,3-d]pyrimidin-4-yl)amino]benzamide] |
| 100 to 500 | 1.26 to 3.98 | 0.251 to 1 | CCCNC(=O)c1c(F)cc(F)cc1Nc1nc(Nc2cc3c(cc2OC)CCN3C(=O)CN(C)C)nc2[nH]ccc12 [Example 152, 2-[(2-{[1-(N,N-dimethylglycyl)-5-(methyloxy)-2,3-dihydro-1H-indol-6-yl]amino}-1H-pyrrolo[2,3-d]pyrimidin-4-yl)amino]-4,6-difluoro-N-propylbenzamide] |
| < 100 | 0.251 to 1 | 0.251 to 1 | COc1ccc(NC(=O)CN(C)C)cc1Nc1nc(Nc2cccc(F)c2C(N)=O)c2cc[nH]c2n1 [Example 244, 2-[(2-{[5-[(N,N-dimethylglycyl)amino]-2-(methyloxy)phenyl]amino}-1H-pyrrolo[2,3-d]pyrimidin-4-yl)amino]-6-fluorobenzamide] |
| < 100 | 5.01 to 158 | 5.01 to 200 | COc1cc2c(cc1Nc1nc(Nc3cccc(F)c3C(N)=O)c3cc[nH]c3n1)N(C(=O)CN1CCOCC1)CC2 [Example 185, 2-fluoro-6-[(2-{[5-(methyloxy)-1-(4-morpholinylacetyl)-2,3-dihydro-1H-indol-6-yl]amino}-1H-pyrrolo[2,3-d]pyrimidin-4-yl)amino]benzamide] |
| 100 to 500 | 5.01 to 158 | 5.01 to 200 | COc1cc2c(cc1Nc1nc(Nc3ccc(F)c(F)c3C(=O)NC(C)C)c3cc[nH]c3n1)N(C(=O)CN(C)C)CC2 [Example 161, 6-[(2-{[1-(N,N-dimethylglycyl)-5-(methyloxy)-2,3-dihydro-1H-indol-6-yl]amino}-1H-pyrrolo[2,3-d]pyrimidin-4-yl)amino]-2,3-difluoro-N-(1-methylethyl)benzamide] |
| 100 to 500 | 0.251 to 1 | 0.251 to 1 | COc1cc2c(cc1Nc1nc(Nc3cccc(F)c3C(N)=O)c3cc[nH]c3n1)N(C(=O)CN1CCC1)CC2 [Example 143, 2-[(2-{[1-(1-azetidinylacetyl)-5-(methyloxy)-2,3-dihydro-1H-indol-6-yl]amino}-1H-pyrrolo[2,3-d]pyrimidin-4-yl)amino]-6-fluorobenzamide] |
| > 500 | 5.01 to 158 | 5.01 to 200 | COc1cc2c(cc1Nc1nc(Nc3cccc(F)c3C(N)=O)c3cc[nH]c3n1)N(C(=O)CCN1CCN(C(C)C)CC1)CC2 [Example 188, 2-fluoro-6-[(2-{[1-{3-[4-(1-methylethyl)-1-piperazinyl]propanoyl}-5-(methyloxy)-2,3-dihydro-1H-indol-6-yl]amino}-1H-pyrrolo[2,3-d]pyrimidin-4-yl)amino]benzamide] |
| 100 to 500 | 5.01 to 158 | 5.01 to 200 | COCC(=O)N1CCc2cc(OC)c(Nc3nc(Nc4cccc(F)c4C(N)=O)c4cc[nH]c4n3)cc21 [Example 149, 2-fluoro-6-{[2-({5-(methyloxy)-1-[(methyloxy)acetyl]-2,3-dihydro-1H-indol-6-yl}amino)-1H-pyrrolo[2,3-d]pyrimidin-4-yl]amino}benzamide] |
| 100 to 500 | 1.26 to 3.98 | 5.01 to 200 | COc1cc2c(cc1Nc1nc(Nc3cccc(F)c3C(N)=O)c3cc[nH]c3n1)N(C(C)=O)CC2 [Example 134, 2-[(2-{[1-acetyl-5-(methyloxy)-2,3-dihydro-1H-indol-6-yl]amino}-1H-pyrrolo[2,3-d]pyrimidin-4-yl)amino]-6-fluorobenzamide] |

Source: patent US7981903B2, “2-[2-{phenylamino}-1H-pyrrolo[2,3-D]pyrimidin-4-yl)amino] benzamide derivatives as IGF-1R inhibitors for the treatment of cancer” (GlaxoSmithKline LLC, priority 2007, dated 2011)
